Assay results: the supplement of paper PMC10307832

Compound: COc1cccc2c1C(=O)c1c(O)c3c(c(O)c1C2=O)C[C@@](O)(C(=O)CO)C[C@@H]3O[C@H]1C[C@H](N)[C@H](O)[C@H](C)O1 [Doxorubicin] + Cc1cc(Nc2cc(N3CCN(C)CC3)nc(Sc3ccc(NC(=O)C4CC4)cc3)n2)n[nH]1 [Tozasertib] (partner 0.1 µM)
Experiment: relative viability (nuclei count vs DMSO), 5 days (fraction); higher = more cells survive
Details: first compound 0.001 µM
Method in brief: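 A single step with final 0.05% Triton X-100, 1% formaldehyde and 1 ug/ml Hoechst fixed the cells and stained nuclei 5 days after treatment. Lung cancer cell lines in 1536-well plates had been treated by pin tool the day after seeding with one drug alone or a fixed anchor-drug dose plus five library-drug doses (not always all listed) in √10 steps, and nuclei were counted on 4× images. Relative viability is the ratio of nuclei in treated wells to nuclei in vehicle wells, taken as the median of duplicate plates.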

| Cell Line | relative viability |
| --- | --- |
| NCI-H2342 | 0.528 |
| NCI-H1623 | 0.489 |
| RERF-LC-KJ | 0.538 |
| NCI-H1651 | 0.643 |
| NCI-H1734 | 0.48 |
| NCI-H2009 | 0.748 |
| NCI-H596 | 0.857 |
| SK-LU-1 | 0.318 |
| SW 1573 | 0.185 |
| LCLC-97TM1 | 0.183 |
| NCI-H661 | 0.37 |
| NCI-H2228 | 0.276 |
| EMC-BAC-2 | 0.321 |
| HCC-44 | 0.767 |
| NCI-H727 | 0.697 |
| LK-2 | 0.153 |
| NCI-H2126 | 0.902 |
| NCI-H1648 | 0.55 |
| H3255 | 0.59 |
| COR-L23 | 0.227 |
| COR-L 105 | 0.424 |
| LC-2-ad | 0.455 |
| LU99A | 0.298 |
| ChaGo-K-1 | 0.229 |
| NCI-H358 | 0.107 |
| NCI-H322M | 0.518 |
| HCC-78 | 0.491 |
| NCI-H522 | 0.581 |
| LXF-289 | 0.205 |

Same assay, conditions: first compound 0.003162 µM

| Cell Line | relative viability |
| --- | --- |
| NCI-H2342 | 0.506 |
| NCI-H1623 | 0.426 |
| RERF-LC-KJ | 0.406 |
| NCI-H1651 | 0.793 |
| NCI-H1734 | 0.275 |
| NCI-H2009 | 0.745 |
| NCI-H596 | 1.08 |
| SK-LU-1 | 0.326 |
| SW 1573 | 0.144 |
| LCLC-97TM1 | 0.191 |
| NCI-H661 | 0.354 |
| NCI-H2228 | 0.269 |
| EMC-BAC-2 | 0.26 |
| NCI-H2087 | 0.278 |
| HCC-44 | 0.882 |
| NCI-H727 | 0.513 |

| Cell Line | relative viability |
| --- | --- |
| LK-2 | 0.156 |
| NCI-H2126 | 0.752 |
| NCI-H1648 | 0.471 |
| NCI-H1793 | 0.403 |
| H3255 | 0.759 |
| COR-L23 | 0.186 |
| COR-L 105 | 0.368 |
| LC-2-ad | 0.402 |
| LU99A | 0.28 |
| ChaGo-K-1 | 0.199 |
| NCI-H358 | 0.0976 |
| NCI-H322M | 0.506 |
| HCC-78 | 0.44 |
| NCI-H522 | 0.577 |
| LXF-289 | 0.192 |
| HCC-366 | 0.156 |

Same assay, conditions: first compound 0.01 µM

| Cell Line | relative viability |
| --- | --- |
| NCI-H2342 | 0.545 |
| NCI-H1623 | 0.417 |
| RERF-LC-KJ | 0.398 |
| NCI-H1651 | 0.648 |
| NCI-H1734 | 0.292 |
| NCI-H2009 | 0.678 |
| NCI-H596 | 0.943 |
| SK-LU-1 | 0.288 |
| SW 1573 | 0.148 |
| LCLC-97TM1 | 0.216 |
| NCI-H661 | 0.349 |
| NCI-H2228 | 0.21 |
| EMC-BAC-2 | 0.308 |
| NCI-H2087 | 0.248 |
| HCC-44 | 0.797 |
| NCI-H727 | 0.697 |

| Cell Line | relative viability |
| --- | --- |
| LK-2 | 0.134 |
| NCI-H2126 | 0.774 |
| NCI-H1648 | 0.348 |
| NCI-H1793 | 0.348 |
| H3255 | 0.573 |
| COR-L23 | 0.201 |
| COR-L 105 | 0.443 |
| LC-2-ad | 0.401 |
| LU99A | 0.287 |
| ChaGo-K-1 | 0.222 |
| NCI-H358 | 0.0897 |
| NCI-H322M | 0.518 |
| HCC-78 | 0.403 |
| NCI-H522 | 0.512 |
| LXF-289 | 0.192 |
| HCC-366 | 0.179 |

Same assay, conditions: first compound 0.03162 µM

| Cell Line | relative viability |
| --- | --- |
| NCI-H2342 | 0.508 |
| NCI-H1623 | 0.39 |
| RERF-LC-KJ | 0.233 |
| NCI-H1651 | 0.319 |
| NCI-H1734 | 0.238 |
| NCI-H2009 | 0.524 |
| NCI-H596 | 0.806 |
| SK-LU-1 | 0.173 |
| SW 1573 | 0.103 |
| LCLC-97TM1 | 0.268 |
| NCI-H661 | 0.339 |
| NCI-H2228 | 0.125 |
| EMC-BAC-2 | 0.25 |
| NCI-H2087 | 0.165 |
| HCC-44 | 0.284 |
| NCI-H727 | 0.636 |

| Cell Line | relative viability |
| --- | --- |
| LK-2 | 0.177 |
| NCI-H2126 | 0.229 |
| NCI-H1648 | 0.304 |
| NCI-H1793 | 0.286 |
| H3255 | 0.604 |
| COR-L23 | 0.123 |
| COR-L 105 | 0.334 |
| LC-2-ad | 0.246 |
| LU99A | 0.281 |
| ChaGo-K-1 | 0.208 |
| NCI-H358 | 0.1 |
| NCI-H322M | 0.437 |
| HCC-78 | 0.353 |
| NCI-H522 | 0.488 |
| LXF-289 | 0.221 |
| HCC-366 | 0.106 |

Same assay, conditions: first compound 0.1 µM

| Cell Line | relative viability |
| --- | --- |
| NCI-H2342 | 0.625 |
| NCI-H1623 | 0.445 |
| RERF-LC-KJ | 0.233 |
| NCI-H1651 | 0.157 |
| NCI-H1734 | 0.249 |
| NCI-H2009 | 0.284 |
| NCI-H596 | 0.859 |
| SK-LU-1 | 0.179 |
| SW 1573 | 0.0879 |
| LCLC-97TM1 | 0.319 |
| NCI-H661 | 0.388 |
| NCI-H2228 | 0.107 |
| EMC-BAC-2 | 0.216 |
| NCI-H2087 | 0.156 |
| HCC-44 | 0.321 |
| NCI-H727 | 0.661 |

| Cell Line | relative viability |
| --- | --- |
| LK-2 | 0.19 |
| NCI-H2126 | 0.251 |
| NCI-H1648 | 0.456 |
| NCI-H1793 | 0.358 |
| H3255 | 0.539 |
| COR-L23 | 0.122 |
| COR-L 105 | 0.344 |
| LC-2-ad | 0.239 |
| LU99A | 0.309 |
| ChaGo-K-1 | 0.226 |
| NCI-H358 | 0.0933 |
| NCI-H322M | 0.383 |
| HCC-78 | 0.388 |
| NCI-H522 | 0.609 |
| LXF-289 | 0.2 |
| HCC-366 | 0.158 |
